Assay results reported in ChEMBL document CHEMBL4177572, “Recent advances in JAK3 inhibition: Isoform selectivity by covalent cysteine targeting” (Bioorg Med Chem Lett, 2017).
Values belong to the compound of their own block, whether it stands above or below them.

How the values were obtained:
[1] = target: T1, Tyrosine-protein kinase JAK3 (Homo sapiens) (UniProt P52333); experiment: Binding affinity to JAK3 (unknown origin) assessed as dissociation half life
T1 sequence (whole entry): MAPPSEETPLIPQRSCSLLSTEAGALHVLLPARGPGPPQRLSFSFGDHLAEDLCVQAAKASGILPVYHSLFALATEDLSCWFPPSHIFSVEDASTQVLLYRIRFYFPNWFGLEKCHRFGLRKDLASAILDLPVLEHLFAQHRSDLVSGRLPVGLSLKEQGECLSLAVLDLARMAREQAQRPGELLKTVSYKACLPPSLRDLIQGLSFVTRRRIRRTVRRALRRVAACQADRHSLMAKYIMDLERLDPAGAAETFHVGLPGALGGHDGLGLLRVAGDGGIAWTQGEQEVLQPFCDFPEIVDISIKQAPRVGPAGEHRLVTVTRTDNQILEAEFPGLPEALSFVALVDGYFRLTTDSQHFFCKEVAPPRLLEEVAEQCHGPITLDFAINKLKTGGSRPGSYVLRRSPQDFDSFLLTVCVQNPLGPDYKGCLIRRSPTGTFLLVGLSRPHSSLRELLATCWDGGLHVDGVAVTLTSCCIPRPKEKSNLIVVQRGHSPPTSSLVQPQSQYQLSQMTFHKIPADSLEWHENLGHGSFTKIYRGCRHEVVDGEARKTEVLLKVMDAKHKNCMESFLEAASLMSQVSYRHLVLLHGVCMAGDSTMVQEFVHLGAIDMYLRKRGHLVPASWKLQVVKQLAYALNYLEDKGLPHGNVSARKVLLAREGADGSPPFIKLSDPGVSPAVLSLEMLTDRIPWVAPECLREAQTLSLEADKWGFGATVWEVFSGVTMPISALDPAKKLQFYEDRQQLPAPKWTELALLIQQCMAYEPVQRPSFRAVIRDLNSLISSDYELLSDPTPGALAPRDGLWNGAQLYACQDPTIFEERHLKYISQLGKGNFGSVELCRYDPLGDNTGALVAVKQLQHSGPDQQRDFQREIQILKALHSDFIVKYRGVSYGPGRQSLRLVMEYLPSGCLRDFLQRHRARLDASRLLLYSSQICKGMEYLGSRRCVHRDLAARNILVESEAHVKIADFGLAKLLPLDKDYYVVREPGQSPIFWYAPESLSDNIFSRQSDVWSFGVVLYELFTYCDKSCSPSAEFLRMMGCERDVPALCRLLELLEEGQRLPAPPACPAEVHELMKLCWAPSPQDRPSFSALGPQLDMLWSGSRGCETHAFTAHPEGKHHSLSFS

Homo sapiens [2] = species: Homo sapiens; experiment: Selectivity ratio of IC50 for JAK1 (unknown origin) to IC50 for JAK3 (unknown origin)
Homo sapiens [3] = species: Homo sapiens; experiment: Selectivity ratio of IC50 for TYK2 (unknown origin) to IC50 for JAK3 (unknown origin)
Homo sapiens [4] = species: Homo sapiens; experiment: Selectivity ratio of IC50 for JAK2 (unknown origin) to IC50 for JAK3 (unknown origin)
[5] = target: Tyrosine-protein kinase JAK2 (Homo sapiens, UniProt O60674); experiment: Time-dependent inhibition of recombinant human N-terminal His-tagged JAK2 (826 to 1132 residues) expressed in sf21 cells using biotinylated peptide substrate after 1 hr by DELFIA
Chain of Tyrosine-protein kinase JAK2 (O60674 whole entry, the tested form may be a part): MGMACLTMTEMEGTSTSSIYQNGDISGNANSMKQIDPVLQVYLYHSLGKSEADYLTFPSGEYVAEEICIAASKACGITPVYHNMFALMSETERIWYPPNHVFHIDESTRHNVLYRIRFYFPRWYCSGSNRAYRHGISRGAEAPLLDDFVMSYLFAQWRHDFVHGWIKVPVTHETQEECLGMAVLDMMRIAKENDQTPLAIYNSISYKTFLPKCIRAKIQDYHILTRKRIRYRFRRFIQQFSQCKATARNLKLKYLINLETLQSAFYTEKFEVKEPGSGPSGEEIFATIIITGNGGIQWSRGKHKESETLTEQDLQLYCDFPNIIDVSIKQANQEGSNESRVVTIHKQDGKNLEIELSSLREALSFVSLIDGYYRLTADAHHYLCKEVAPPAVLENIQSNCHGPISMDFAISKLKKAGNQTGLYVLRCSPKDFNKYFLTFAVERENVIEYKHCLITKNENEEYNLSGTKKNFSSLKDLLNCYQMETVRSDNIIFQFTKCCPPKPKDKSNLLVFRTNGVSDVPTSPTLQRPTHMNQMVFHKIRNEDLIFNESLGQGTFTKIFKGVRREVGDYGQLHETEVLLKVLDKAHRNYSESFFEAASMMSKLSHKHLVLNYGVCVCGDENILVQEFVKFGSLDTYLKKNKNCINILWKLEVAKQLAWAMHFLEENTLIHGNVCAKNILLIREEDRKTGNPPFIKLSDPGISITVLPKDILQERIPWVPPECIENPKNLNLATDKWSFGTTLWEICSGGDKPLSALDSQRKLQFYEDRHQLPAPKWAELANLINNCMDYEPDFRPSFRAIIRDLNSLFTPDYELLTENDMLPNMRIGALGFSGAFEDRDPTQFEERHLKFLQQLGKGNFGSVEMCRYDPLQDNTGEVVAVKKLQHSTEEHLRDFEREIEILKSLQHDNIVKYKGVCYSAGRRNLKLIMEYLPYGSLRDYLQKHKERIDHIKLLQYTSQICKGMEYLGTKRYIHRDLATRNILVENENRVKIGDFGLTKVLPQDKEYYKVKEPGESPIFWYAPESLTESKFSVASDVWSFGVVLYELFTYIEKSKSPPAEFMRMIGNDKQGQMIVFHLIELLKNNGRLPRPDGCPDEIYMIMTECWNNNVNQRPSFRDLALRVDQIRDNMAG

JAK3/JAK1 [6] = target: T2, JAK3/JAK1 (Homo sapiens, UniProt P23458+P52333); experiment: Inhibition of JAK1/JAK3 in human PBMC CD3+/CD8+ T cells assessed as reduction in IL7-stimulated STAT5 phosphorylation
T2 sequence (P23458 whole entry, one chain of several): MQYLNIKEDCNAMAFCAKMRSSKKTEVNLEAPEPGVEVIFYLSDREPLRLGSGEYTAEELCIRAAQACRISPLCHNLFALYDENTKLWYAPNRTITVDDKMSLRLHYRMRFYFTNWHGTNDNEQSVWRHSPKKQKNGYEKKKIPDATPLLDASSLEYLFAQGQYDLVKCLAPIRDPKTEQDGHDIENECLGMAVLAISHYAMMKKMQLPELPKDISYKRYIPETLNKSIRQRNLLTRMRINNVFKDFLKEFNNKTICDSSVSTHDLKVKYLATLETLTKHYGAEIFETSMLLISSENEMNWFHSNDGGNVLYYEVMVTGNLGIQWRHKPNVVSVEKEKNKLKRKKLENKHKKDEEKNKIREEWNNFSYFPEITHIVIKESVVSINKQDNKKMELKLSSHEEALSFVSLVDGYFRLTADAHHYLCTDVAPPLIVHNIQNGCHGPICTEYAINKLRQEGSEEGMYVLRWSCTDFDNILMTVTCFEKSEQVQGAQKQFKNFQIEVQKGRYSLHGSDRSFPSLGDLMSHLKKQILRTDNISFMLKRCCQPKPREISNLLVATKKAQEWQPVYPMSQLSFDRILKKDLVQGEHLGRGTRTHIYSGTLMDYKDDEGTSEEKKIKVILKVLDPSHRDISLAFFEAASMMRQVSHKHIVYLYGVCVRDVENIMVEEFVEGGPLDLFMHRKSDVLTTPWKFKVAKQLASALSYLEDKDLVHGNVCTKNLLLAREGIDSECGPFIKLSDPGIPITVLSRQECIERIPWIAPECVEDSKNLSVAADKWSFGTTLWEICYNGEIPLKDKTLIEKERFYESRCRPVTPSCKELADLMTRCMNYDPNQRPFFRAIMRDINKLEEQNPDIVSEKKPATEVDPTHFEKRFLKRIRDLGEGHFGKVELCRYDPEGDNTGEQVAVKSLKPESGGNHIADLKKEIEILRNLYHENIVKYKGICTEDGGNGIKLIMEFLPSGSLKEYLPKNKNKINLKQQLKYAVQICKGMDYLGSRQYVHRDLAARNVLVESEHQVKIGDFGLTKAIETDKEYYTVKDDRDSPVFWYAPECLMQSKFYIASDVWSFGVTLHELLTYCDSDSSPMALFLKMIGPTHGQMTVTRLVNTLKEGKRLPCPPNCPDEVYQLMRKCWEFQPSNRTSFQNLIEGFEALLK

[7] = Half life in rat; assay type: ADME, organism-based; settings: in vivo
JAK3/JAK1 [8] = target: T2, JAK3/JAK1; experiment: Inhibition of JAK1/JAK3 in human whole blood CD3+/CD4+ T cells assessed as reduction in IL7-stimulated STAT5 phosphorylation
[9] = target: Tyrosine-protein kinase JAK1/JAK3 (Mus musculus, UniProt P52332+Q62137); experiment: Inhibition of JAK3/JAK1 in mouse CTLL-2 cells assessed as reduction in IL2-stimulated STAT5 phosphorylation; assay type: cell-based

T1/2 [1]: 9 h
Structure (SMILES): CN(C)C(=O)/C(C#N)=C/c1ccc(Nc2cnc3[nH]cc(C(=O)C(C)(C)C)c3n2)cc1

Ratio IC50 (Homo sapiens [2]): 70
Ratio IC50 (Homo sapiens [3]): 160
Ratio IC50 (Homo sapiens [4]): 70
Structure (SMILES): c1nc(-c2cn(CC3CO3)nn2)c2cc[nH]c2n1 (centres undefined)

IC50 [5]: 40 nM
Structure (SMILES): C=CC(=O)Nc1ccc2ncn(-c3cncc(NC(C)(C)C)n3)c2c1

IC50 (JAK3/JAK1 [6]): 280 nM
half-life [7]: 18 min
IC50 (JAK3/JAK1 [8]): 5.1 µM
IC50 [9]: 70 nM
Structure (SMILES): C=C(C)C(=O)Nc1cccc(-c2ncnc3[nH]cc(C(=O)OCC)c23)c1
